Reference: paper PMC6412891, “Synthesis and Biological Evaluation of Novel Thiazolyl-Coumarin Derivatives as Potent Histone Deacetylase Inhibitors with Antifibrotic Activity” (Molecules, 2019)

Tests used:
[1] = test system: neonatal rat cardiac fibroblasts (CFs); experiment: FBS-induced cardiac fibroblast proliferation assay (Alamar Blue); type: cell-based; settings: 10% FBS-induced CF proliferation, 48 h, read-out: Inhibition percentage of cell proliferation
Protocol: CFs were treated for 48 h with 10% fetal bovine serum (FBS), to induce CFs proliferation in presence/absence of each new CTz derivatives in a concentration range of 1–10 μM. In Table 4, the inhibition percentage of cell proliferation for each concentration of the synthesized compounds are shown. All derivatives inhibited CFs proliferation induce by serum.
Sprague Dawley rats were obtained from the Animal Breeding Facility of the School of Chemical and Pharmaceutical Sciences at the University of Chile. All studies followed the Guide for the Care and Use of Laboratory Animals published by the US National Institutes of Health (NIH Publication 8th, 2011), and experimental protocols were approved by the University of Chile Institutional Ethics Review Committee. CF were isolated from of 2 or 3–day–old Sprague-Dawley rats and cultured as described previously. Briefly, the neonatal rats were decapitated and their hearts were extracted under aseptic environment. Atria were removed and ventricles were cut into small pieces (~1–2 mm) for posterior colagenase II digestion. The digestion yield was separated by 10 min centrifugation at 89×g. The pellet was resuspended in 10 mL of Dulbecco’s Modified Eagle’s Medium/Nutrient F-12 (DMEM-F12) supplemented with 10% FBS and antibiotics (100 μg/mL streptomycin and 100 units/mL penicillin) and cultured in a humid atmosphere of 5% CO2 and 95% O2 at 37°C until confluence (5 days). The purity of the CFs population was assessed through the expression of several markers. CFs had positive staining against vimentin (Santa Cruz Biotechnology), while being negative against sarcomeric actin and desmin (Sigma-Aldrich). Experiments were performed on cells at passage 1. […]
To evaluate cytotoxicity, CFs were seeded in 12 microwell plates at a ratio of 2 × 10^4 cell/cm^2, cultured in DMEM–F12 medium + 10% FBS, which was subsequently replaced by DMEM–F12. After 24 h of serum starvation derivatives were applied at proper times and concentrations in accordance to experimental procedures. Cell viability assays were carried out using Alamar Blue®, a nontoxic, cell permeable non fluorescent compound that is blue in color. Viable cells reduce resazurin to resorufin, which produces very bright red fluorescence which is used as a quantitative cell viability measure. […] The fluorescence of Alamar Blue® was read using microplate reader at 570 excitation and emission to 595 nm. Cell survival was expressed as percentage over the untreated cells. […] Cell proliferation was quantified by Alamar Blue®, according to protocol mentioned before. Cell proliferation was expressed as percentage over the control FBS treated cells.

[2] = test system: HDACs HeLa cells nuclear extract; experiment: HDAC inhibitory activity, fluorometric kit, HeLa cell nuclear extract; type: biochemical, human; settings: HeLa cell nuclear extract as HDAC source
HDAC6 human recombinant = molecular target: T1, HDAC6 human recombinant (Homo sapiens, UniProt Q9UBN7); experiment: HDAC6 inhibitory activity, fluorometric kit; type: biochemical; settings: Class II
T1 construct: purchased Enzo Life Science BML-AK516
T1 sequence (Q9UBN7 1-1215): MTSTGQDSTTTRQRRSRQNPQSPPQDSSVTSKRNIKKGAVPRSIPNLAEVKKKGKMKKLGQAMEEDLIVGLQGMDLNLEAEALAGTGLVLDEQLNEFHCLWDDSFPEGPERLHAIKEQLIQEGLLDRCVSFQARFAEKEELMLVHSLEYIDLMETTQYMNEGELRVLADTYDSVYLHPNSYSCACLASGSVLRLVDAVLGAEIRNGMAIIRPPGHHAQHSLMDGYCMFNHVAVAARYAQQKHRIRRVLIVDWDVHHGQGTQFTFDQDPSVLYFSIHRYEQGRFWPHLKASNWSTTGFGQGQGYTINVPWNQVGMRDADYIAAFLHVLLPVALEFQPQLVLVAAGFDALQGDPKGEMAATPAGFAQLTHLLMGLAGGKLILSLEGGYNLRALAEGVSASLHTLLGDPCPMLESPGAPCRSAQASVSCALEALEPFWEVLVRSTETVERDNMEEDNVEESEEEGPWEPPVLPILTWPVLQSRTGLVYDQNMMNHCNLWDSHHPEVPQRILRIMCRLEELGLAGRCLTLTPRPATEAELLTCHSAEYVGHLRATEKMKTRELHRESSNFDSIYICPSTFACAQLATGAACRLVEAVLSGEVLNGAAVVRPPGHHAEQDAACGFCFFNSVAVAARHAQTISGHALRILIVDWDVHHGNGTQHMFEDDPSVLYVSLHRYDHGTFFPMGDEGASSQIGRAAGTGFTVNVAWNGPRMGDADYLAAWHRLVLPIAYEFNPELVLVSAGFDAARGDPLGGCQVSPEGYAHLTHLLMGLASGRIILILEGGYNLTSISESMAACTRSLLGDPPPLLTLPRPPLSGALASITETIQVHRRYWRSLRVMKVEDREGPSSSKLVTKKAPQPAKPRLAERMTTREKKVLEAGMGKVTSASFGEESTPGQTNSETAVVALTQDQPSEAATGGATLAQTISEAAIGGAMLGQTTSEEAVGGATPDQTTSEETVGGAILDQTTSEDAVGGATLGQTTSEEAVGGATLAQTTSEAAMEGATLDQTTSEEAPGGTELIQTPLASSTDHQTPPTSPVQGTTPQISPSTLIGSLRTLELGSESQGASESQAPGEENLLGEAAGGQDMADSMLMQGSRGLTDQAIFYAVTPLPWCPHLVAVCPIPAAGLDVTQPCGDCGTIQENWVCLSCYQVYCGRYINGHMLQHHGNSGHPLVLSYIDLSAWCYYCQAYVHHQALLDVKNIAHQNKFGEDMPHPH

[3] = Cytotoxicity assay (Alamar Blue) in cardiac fibroblasts; type: cell-based, rat; settings: Sprague-Dawley, rat, primary neonatal rat cardiac fibroblasts (CFs), CFs treated for 48 h
Protocol: CFs were treated for 48 h with all the new CTz derivatives in a broad concentration range (100 μM^−1 mM), and their cytotoxicity was then evaluated. In Table 3 cytotoxic concentration 50 (CC50) values for each of the synthesized compounds are shown. […] When comparing the different ZBG the series 5 is the least cytotoxic for CFs, while series 8 was the most cytotoxic.
Sprague Dawley rats were obtained from the Animal Breeding Facility of the School of Chemical and Pharmaceutical Sciences at the University of Chile. All studies followed the Guide for the Care and Use of Laboratory Animals published by the US National Institutes of Health (NIH Publication 8th, 2011), and experimental protocols were approved by the University of Chile Institutional Ethics Review Committee. CF were isolated from of 2 or 3–day–old Sprague-Dawley rats and cultured as described previously. Briefly, the neonatal rats were decapitated and their hearts were extracted under aseptic environment. Atria were removed and ventricles were cut into small pieces (~1–2 mm) for posterior colagenase II digestion. The digestion yield was separated by 10 min centrifugation at 89×g. The pellet was resuspended in 10 mL of Dulbecco’s Modified Eagle’s Medium/Nutrient F-12 (DMEM-F12) supplemented with 10% FBS and antibiotics (100 μg/mL streptomycin and 100 units/mL penicillin) and cultured in a humid atmosphere of 5% CO2 and 95% O2 at 37°C until confluence (5 days). The purity of the CFs population was assessed through the expression of several markers. CFs had positive staining against vimentin (Santa Cruz Biotechnology), while being negative against sarcomeric actin and desmin (Sigma-Aldrich). Experiments were performed on cells at passage 1. Cells were cultured in 35-mm well plates and serum starved for 24 h prior to stimulation.
To evaluate cytotoxicity, CFs were seeded in 12 microwell plates at a ratio of 2 × 10^4 cell/cm^2, cultured in DMEM–F12 medium + 10% FBS, which was subsequently replaced by DMEM–F12. After 24 h of serum starvation derivatives were applied at proper times and concentrations in accordance to experimental procedures. Cell viability assays were carried out using Alamar Blue®, a nontoxic, cell permeable non fluorescent compound that is blue in color. Viable cells reduce resazurin to resorufin, which produces very bright red fluorescence which is used as a quantitative cell viability measure. 10 μL of 0.2 mg/mL Alamar Blue® was added into each well followed by incubation for 24 h. The fluorescence of Alamar Blue® was read using microplate reader at 570 excitation and emission to 595 nm. Cell survival was expressed as percentage over the untreated cells. To evaluate CFs proliferation assay, cells were seeded as mentioned before, and after serum starvation, they were stimulated by 10% fetal bovine serum (FBS), in presence/absence of CTz derivatives for […], at concentrations according to experiment. Cell proliferation was quantified by Alamar Blue®, according to protocol mentioned before. Cell proliferation was expressed as percentage over the control FBS treated cells.

HDAC1 human recombinant = molecular target: T2, HDAC1 human recombinant (Homo sapiens, UniProt Q13547); experiment: HDAC1 inhibitory activity, fluorometric kit; type: biochemical; settings: Class I
T2 construct: purchased Enzo Life Science BML-AK511
T2 sequence (Q13547 whole entry): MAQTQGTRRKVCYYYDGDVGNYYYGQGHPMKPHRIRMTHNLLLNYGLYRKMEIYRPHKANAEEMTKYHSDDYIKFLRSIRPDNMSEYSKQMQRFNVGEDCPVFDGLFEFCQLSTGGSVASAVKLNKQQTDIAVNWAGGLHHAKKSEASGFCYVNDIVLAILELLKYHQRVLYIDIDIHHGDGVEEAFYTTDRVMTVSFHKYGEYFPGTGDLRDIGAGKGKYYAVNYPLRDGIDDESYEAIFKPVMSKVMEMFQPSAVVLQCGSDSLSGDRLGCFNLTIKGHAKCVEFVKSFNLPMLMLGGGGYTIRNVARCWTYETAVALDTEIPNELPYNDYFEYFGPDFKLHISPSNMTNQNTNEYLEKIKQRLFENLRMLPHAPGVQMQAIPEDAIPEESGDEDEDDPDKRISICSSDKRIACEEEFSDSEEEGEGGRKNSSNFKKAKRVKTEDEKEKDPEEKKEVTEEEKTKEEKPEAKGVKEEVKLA

IC50 [2] [µM]	IC50 (HDAC6 human recombinant) [µM]	IC50 (HDAC1 human recombinant) [µM]	SMILES	inhibition at 1 µM [1] [%]	inhibition at 5 µM [1] [%]	inhibition at 10 µM [1] [%]	CC50 at 48 h [3] [µM]
0.509 ± 0.0233	0.449 ± 0.0207	0.613 ± 0.0328	O=C(Nc1nc(-c2cc3cc(Br)ccc3oc2=O)cs1)c1ccc(O)c(O)c1 [Compound 6b]	15.8 ± 3.6	40 ± 1.8	64.1 ± 1.7	102 ± 10.3
0.477 ± 0.0275	0.581 ± 0.0275	0.504 ± 0.0314	COc1ccc2oc(=O)c(-c3csc(NC(=O)c4ccc(O)c(O)c4)n3)cc2c1 [Compound 6c]	10.9 ± 3.6	42.2 ± 1.8	64.9 ± 2.3	124 ± 12.8
5.4 ± 0.4	6.34 ± 0.466	4.67 ± 0.362	O=C(O)CCCCC(=O)Nc1nc(-c2cc3cc(Br)ccc3oc2=O)cs1 [Compound 7b]	2.4 ± 1.1	36.1 ± 5.4	48 ± 4.8	80 ± 23.6
4.7 ± 0.31	2.43 ± 0.157	3.38 ± 0.302	COc1ccc2oc(=O)c(-c3csc(NC(=O)CCCCC(=O)O)n3)cc2c1 [Compound 7c]	6 ± 0.4	33 ± 4.1	48.8 ± 5.2	99.5 ± 6.3
